Laboratory results as given in US20250090626A1, “NEW PEPTIDE AND USES THEREOF” (Neo Cremar Co., Ltd., priority 2021, published 2025).
No end group written: not given here.

Assays:
Assay type in all cases: cell-based, mouse
C2C12 cells = test: mRNA expression of myodifferentiation and sarcopenia factors (real-time PCR); settings: C2C12 myodifferentiation, peptide-treated vs untreated
Protocol: (§1) After adding 1 ml of TRIzol™ reagent, the cells were crushed using a sonicator. After centrifugation of the crushed sample (12,000 rpm, 10 min, 4° C.), the supernatant was transferred to a new tube, added with 200 μl of chloroform, and left at room temperature for 10 minutes. After 10 minutes, centrifugation (12,000 rpm, 10 min, 4° C.) was performed, yielded a transparent supernatant. Next, 500 μl of isopropanol was added, the mixture was left for 10 minutes, and centrifugation was performed to obtain RNA pellets. After washing by adding 70% ethanol (distilled water treated with ethanol+diethylpyrocarbonate (hereinafter referred to as DEPC)) to the RNA pellets, complete removal and drying were followed. The dried transparent RNA was added with DEPC-treated distilled water and then stored at −80° C. Total RNA volume was measured by nanodrop, and the 18s and 28s bands were detected in 1.2% agarose gel. cDNA was synthesized with 2 μg of total RNA, random hexamer primers, and reverse transcriptase (25° C.: 10 min, 37° C.: 120 min, 85° C.: 5 min).
(§2) Real-time PCR (RT-PCR) was performed for detecting gene expression. For observation of real-time gene expression, gene expression was analyzed using the Power SYBR Green PCR Master Mix, which includes fluorescent materials of SYBR green (7500 Real-time PCR system). The PCR primer was designed with Primer 3 software (http://frodo.wi.mit.edu) according to the nucleotide sequence secured from NCBI GenBank. PCR was performed 40 times at 95° C. for 10 minutes, again at 95° C. for 33 seconds, at gene primer temperature (tm) for 33 seconds, and at 72° C. for 33 seconds. Gene expression values were analyzed through the analysis of c(t) values obtained through real-time PCR analysis (fold change 2-^ΔΔCt formula). Setting the gene expression value of the untreated cells to 1, the gene expression value of the treated cells was calculated. In the analysis of gene c(t) values, normalization was conducted with the glyceraldehyde-3-phosphate dehydrogenase (GAPDH).

3T3L1 cells [1] = test: 3T3L1 cell proliferation (MTT method); settings: 3T3L1, Ac-MIF1 1000 nM, 2 days, FIG. 13A
Protocol: 3T3L1 cells, mouse fibroblasts, were cultured in Dulbecco's Modified Eagle's Medium (DMEM)+10% fetal bovine serum (FBS)+1% penicillin/streptomycin (P/S). To validate the effect of MIF peptide, 3T3L1 cells (2×10^3 cells/ml) were placed in a 12-well cell culture dish, attached for 24 hours, and treated with MIF peptide (1000 nM) for 2 days, followed by observation of cell proliferation by MTT method. The medium was replaced every 2 days, and the cells were cultured at 37° C.
To validate cell proliferation, the culture medium of the cells was removed, the cells were washed with DMEM, 500 μl of MTT reagent (0.5 mg/ml) dissolved in phosphate buffered saline (PBS) was added to each well, and the cells were left at 37° C. for 1 hour. The reaction solution was removed, and 1000 μl of DMSO was added to each well. Purple formazan crystals were completely dissolved in DMSO, and the absorbance was measured at 540 nm.

3T3L1 cells [2] = test: Adipodifferentiation of 3T3L1 cells, Oil red O staining; settings: 3T3L1, adipocyte-induced differentiation medium with Ac-MIF1, 4 days; FIG. 13B
Protocol: For differentiation of 3T3L1 cells into adipocytes, when the cells grew about 100% or more, they were replaced with differentiation medium (DMEM+10% FBS+1% P/S+10 ug/ml insulin+1 μM dexametazone+0.5 μM IBMX (3-isobutyl-1-methylxanthine)) and cultured for 2 days. After 2 days, MIF was treated in a medium including 10 ug/ml insulin to induce cell differentiation.
3T3L1 cells were treated with peptides and differentiated for 4 days, then the medium was removed, and the cells were washed with normal saline, treated with 10% formaldehyde, and left for 10 minutes. After 10 minutes, Oil-red O staining agents (6 ([…] Oil-red O reagent+1 ml 100% isopropanol):4 (distilled water)) were treated and left for 1 hour. After 1 hour, cells were washed with normal saline and then observed under a microscope. To measure the Oil-red O stained in the intracellularly differentiated cells, 100% isopropanol was added and collected, followed by measurement at 510 nm.

3T3L1 cells [3] = test: Expression of FMOD, MSTN and lipogenesis-related mRNAs and proteins in 3T3L1 cells; settings: 3T3L1, Ac-MIF1 treated vs untreated; FIG. 13C
Protocol: as §1, §2
(2) The medium of cultured 3T3L1 cells was removed and washed with PBS. After adding LIPA buffer and protease inhibitor to the washed cells, the proteins included in the supernatant were collected after centrifugation at 12000 rpm for 10 minutes. 40 μg of the extracted proteins were subjected to electrophoresis in 8 to 10% acrylamide gel and then transferred to a polyvinylidene fluoride (PVDF) membrane (Milipore). These were blocked with 3% skim milk or bovine serum albumin (BSA) at room temperature for 1 hour. Afterwards, primary antibody diluted in 1% skim milk or BSA (MSTN; 1:1000, 13-actin; 1:1000, CD36; 1:500, CD163; 1:500, FMOD; 1:400, and PPARγ; 1:500) was added and reacted at 4° C. for over 16 hours. After 16 hours, they were washed three times with TBST (Tris-buffered saline with Tween 20) and reacted with secondary antibody conjugated with horseradish peroxidase (HRP) at room temperature for 1 hour. It was washed three times with TBST and developed after adding Super Signal West Pico Chemiluminescent Substrate.

Ac-VDFEAFWDWG [Ac-MIF1, MIF1 with N-terminus acetylated, 10 mer]
8%: proliferation of 3T3L1 cells, decrease compared to cells without peptide treatment (3T3L1 cells [1]) | fat accumulation (Oil-red O intensity), decrease compared to cells without peptide treatment (3T3L1 cells [2])
increased: MYL2 mRNA expression (C2C12 cells) | MYOD mRNA expression (C2C12 cells)
decreased: CD36 expression (mRNA and protein) (3T3L1 cells [3]) | CD163 expression (mRNA and protein) (3T3L1 cells [3]) | FMOD expression (mRNA and protein) (3T3L1 cells [3]) | MSTN expression (mRNA and protein) (3T3L1 cells [3]) | PPARγ expression (mRNA and protein) (3T3L1 cells [3])
